Data: PubChem BioAssay AID488795 (NMMLSC, 2010)
Active and inactive are the calls of the source. The rule behind the calls is not given here.

The compounds below were run against Vacuolar aminopeptidase 1 (Saccharomyces cerevisiae (strain ATCC 204508 / S288c)) (UniProt P14904) (assay: LAP4-GFP modulation potency, analog set, SAR follow-up, cell-based, KU SAR set, flow cytometry (AID 488795)). Details: S. cerevisiae Lap4-GFP reporter, flow cytometry MCF.
Sequence of Vacuolar aminopeptidase 1 (Saccharomyces cerevisiae (strain ATCC 204508 / S288c)) (P14904 whole entry, looked up): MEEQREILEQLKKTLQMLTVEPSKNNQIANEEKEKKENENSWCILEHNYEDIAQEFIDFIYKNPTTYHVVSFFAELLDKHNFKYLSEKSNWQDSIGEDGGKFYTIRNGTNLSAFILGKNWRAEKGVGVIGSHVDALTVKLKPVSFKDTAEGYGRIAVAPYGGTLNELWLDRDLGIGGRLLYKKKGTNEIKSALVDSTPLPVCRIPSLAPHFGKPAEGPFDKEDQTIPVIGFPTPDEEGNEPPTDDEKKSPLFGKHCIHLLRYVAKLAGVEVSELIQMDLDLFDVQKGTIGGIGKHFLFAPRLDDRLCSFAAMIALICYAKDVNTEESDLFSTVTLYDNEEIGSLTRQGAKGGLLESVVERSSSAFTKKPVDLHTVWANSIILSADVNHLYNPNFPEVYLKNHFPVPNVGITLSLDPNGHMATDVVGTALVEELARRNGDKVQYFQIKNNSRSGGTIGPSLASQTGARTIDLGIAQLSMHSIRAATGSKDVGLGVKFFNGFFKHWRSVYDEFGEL

Structure (SMILES)	EC50
Cc1ccc(S(=O)(=O)c2ccc([N+](=O)[O-])cn2)cc1	2.55 µM
CCOC(=O)CCS(=O)(=O)c1nc(-c2ccccc2)cc(C(F)(F)F)n1	27.6 µM
Nc1cc(Oc2cccc(Cl)c2)nc(NCc2ccccc2)n1	inactive
O=c1cc(CSc2ccc(Cl)cc2)nc(-c2ccccn2)[nH]1	1.22 µM
CC(C)(C)C(=O)C(Cl)C(=O)Nc1ccccc1 (centres undefined)	6.93 µM
C/C(=N\NC(=O)c1ccc(C(C)(C)C)cc1)c1ccccn1	inactive
Clc1ccc(N=c2ssnc2Cl)cc1	3.73 µM
O=c1/c(=C/c2cccc3ccccc23)sc2ncnn12	4.36 µM
CCC(C)Nc1nc(N)c([N+](=O)[O-])c(Nc2cccc(F)c2)n1 (centres undefined)	inactive
Cc1ccc(S(=O)(=O)c2ncccc2[N+](=O)[O-])cc1	inactive
COc1ccc([N+](=O)[O-])c(S(=O)(=O)c2ccccc2)n1	11.9 µM
COc1ccc([N+](=O)[O-])c(S(=O)(=O)c2ccc(Cl)cc2)n1	3.53 µM
Nc1cc(Nc2cccc(F)c2)nc(NCc2ccccc2)n1	inactive
O=[N+]([O-])c1ccc(O)c2ncccc12	6.57 µM
CCCCC(=O)NNC(=S)NC(=O)c1ccc(C)cc1	4.05 µM
C/C(=N\NC(=O)c1cccc(Br)c1)c1ccccn1	inactive
Oc1c(I)cc(I)c2cccnc12	inactive

Structure (SMILES)	EC50
CN1CCN(C(=O)c2cc(COc3c(F)cccc3F)on2)CC1c1ccccc1 (centres undefined)	inactive
CCSc1nnc(NC(=O)c2ccccn2)s1	inactive
CNc1nc(N)c([N+](=O)[O-])c(Nc2cccc(F)c2)n1	8.37 µM
O=C(OCn1ncc(Br)c(Br)c1=O)c1c(F)cccc1F	4.33 µM
O=C(OCn1ncc(Br)c(Br)c1=O)c1ccc(F)cc1	4.01 µM
Cc1ccc2nc(Cl)c3nnnn3c2c1	4.47 µM
CCOC(=O)CS(=O)(=O)c1nc(-c2ccccc2)cc(C(F)(F)F)n1	6.32 µM
O=C(CCc1ccccc1)NNC(=S)NC(=O)c1ccccc1	3.42 µM
O=S(=O)(CCN(CCS(=O)(=O)C(F)(F)F)CC1CCCO1)C(F)(F)F (centres undefined)	12.5 µM
O=[N+]([O-])c1cc(S(=O)(=O)C(F)(F)F)ccc1Sc1nc2ccccc2s1	14 µM
O=C(Nc1nc(-c2ccccn2)cs1)C1COc2ccccc2O1 (centres undefined)	inactive
CCCOc1ccc(C(=O)NNC(=S)NC(=O)CC)cc1	4.38 µM
O=[N+]([O-])c1ccc(S(=O)(=O)c2cccc(C(F)(F)F)c2)nc1	1.94 µM
CCN(CC)C(=O)Oc1ccnc2cc(Cl)ccc12	inactive
CSC1=NS(=O)(=O)c2c(C)nn(C)c2S1	inactive
CCOC(=O)CSC1=NC(=O)/C(=C\c2ccc(Cl)cc2)S1	inactive
COC(=O)CCS(=O)(=O)c1nc(-c2ccccc2)cc(C(F)(F)F)n1	19.9 µM
